Source: PubChem BioAssay (NCI)
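Where inhibition never reached the appropriate level, the endpoint shown equals the highest concentration tested. Otherwise, values were interpolated linearly from a five-concentration, 48-hour dose response in 96-well plates. The concentration for 50% growth inhibition is given as GI50. At the TGI there is no net growth.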

Key:
Experiment in all cases: inhibition of tumour cell growth, NCI panel, 48 h
[1] = tested on: CCRF-CEM leukemia
[2] = tested on: EKVX NSCLC
[3] = tested on: HOP-62 NSCLC
[4] = tested on: HOP-92 NSCLC
[5] = tested on: KM12 colon
[6] = tested on: NCI-H23 lung
[7] = tested on: RPMI-8226 leukemia
[8] = tested on: UACC-257 melanoma
[9] = tested on: LOX IMVI melanoma
[10] = tested on: PC-3 prostate

SMILES	TGI [1] [µM]	TGI [2] [µM]	TGI [3] [µM]	TGI [4] [µM]	TGI [5] [µM]	TGI [6] [µM]	TGI [7] [µM]	TGI [8] [µM]	GI50 [1] [µM]	GI50 [3] [µM]	GI50 [4] [µM]	GI50 [5] [µM]	GI50 [9] [µM]	TGI [9] [µM]	GI50 [7] [µM]	GI50 [8] [µM]	TGI [10] [µM]	GI50 [2] [µM]	GI50 [6] [µM]	GI50 [10] [µM]
COCCCNC(=O)CC(=O)NCCCOC	> 100	> 100	> 100	> 100	> 100	> 100	> 100	> 100	–	–	–	–	–	–	–	–	–	–	–	–
COc1ccc(Nc2c3ccccc3nc3ccccc23)cc1	10.7	–	14.4	2.93	15	–	4.66	14.4	1.17	1.27	0.259	1.33	0.984	4.81	1.26	2.71	–	–	–	–
O=C(Cc1nc2ccccc2s1)Nc1cccc(C(F)(F)F)c1	4.79	38.9	32.7	–	30.5	30.2	28.7	28.7	–	–	–	–	–	26.2	–	–	–	–	–	–
COC(=O)CCC(=O)CC(=O)C(=O)Nc1c(Cl)cc([N+](=O)[O-])cc1Cl	> 100	> 100	> 100	> 100	> 100	> 100	88.1	> 100	–	–	–	–	–	> 100	–	–	–	–	–	–
c1cc(CNCCN2CCNCC2)ccn1	–	> 100	> 100	> 100	> 100	> 100	> 100	> 100	–	–	–	–	–	> 100	–	–	> 100	–	–	–
CS(=O)(=O)N(N(CCCl)S(=O)(=O)c1ccccc1)S(C)(=O)=O	> 100	> 100	> 100	> 100	> 100	> 100	> 100	> 100	–	–	–	–	–	–	–	–	–	–	–	–
CN(C)CCNC(=O)c1cccc2c1nc(-c1ccccc1)c1ccccc12	10.1	25.7	18.5	9.24	20.1	20.1	–	3.48	–	–	–	–	–	4.03	–	–	–	–	–	–
C=C1CC/C=C(\C)C(=O)C[C@@H]2[C@@H]1CC2(C)C	–	27.3	31.1	6.4	39.1	15.4	> 100	16	–	–	–	–	–	7.06	–	–	26.1	–	–	–
O=CC[C@H]1CCc2ccccc2C12CCC(=O)CC2	> 100	–	> 100	> 100	> 100	–	> 100	> 100	–	–	–	–	–	> 100	–	–	–	–	–	–
COc1cc2c3c(c1OC)-c1c(ccc4c1OCO4)CC3(C#N)N(C(=O)c1ccccc1)CC2 (stereo unspecified)	> 100	> 100	> 100	77.9	> 100	> 100	> 100	> 100	–	–	–	–	–	> 100	–	–	–	–	–	–
CC1(C)Cc2cc(C(=O)O)c3c(c2C1=O)COCC3	> 100	> 100	> 100	–	> 100	> 100	> 100	> 100	–	–	–	–	–	> 100	–	–	–	–	–	–
O=C(Nc1nc2ncn(CCNCc3ccccc3)c2c(=O)[nH]1)c1ccccc1	> 100	> 100	> 100	> 100	> 100	–	> 100	> 100	–	–	–	–	–	> 100	–	–	–	–	–	–
CCOC(=O)C1=C(C)N(c2ccc(C)cc2)C2=C(C(=O)N(c3ccccc3)C2c2ccccc2)C1c1ccccc1 (stereo unspecified)	> 25	> 25	> 25	–	–	> 25	> 25	> 25	–	–	–	–	–	> 25	–	–	–	–	–	–
O=C(O)/C(=C/C=C/c1ccccc1)c1csc(-c2nc(/C(=C\C=C\c3ccccc3)C(=O)O)cs2)n1	45.6	> 100	54.6	59.9	92.4	–	65.3	> 100	–	–	–	–	–	> 100	–	–	–	–	–	–
COc1ccc(/C=c2\sc3n(c2=O)C(N)=C(C#N)C(c2ccc(OC)cc2)C=3c2nc3ccccc3[nH]2)cc1 (stereo unspecified)	> 100	56.2	> 100	70	31	20.2	> 100	78.8	–	–	–	–	–	35.2	–	–	–	–	–	–
CC(C)(C)c1cc2c3c(c1)C(C(F)(F)F)(C(F)(F)F)O[Te]3(C)OC2(C(F)(F)F)C(F)(F)F	> 100	> 100	> 100	–	> 100	> 100	> 100	> 100	–	–	–	–	–	> 100	–	–	–	–	–	–
CCCCS(=O)(=O)CCC(N)C(=O)O (stereo unspecified)	> 100	> 100	> 100	–	> 100	> 100	–	> 100	–	–	–	–	–	–	–	–	> 100	–	–	–
COc1cc2c(cc1C)NC(=O)/C2=C\c1cccc(Oc2ccccc2)c1	24.5	41.7	–	–	34.6	28.3	24	52.3	6.85	–	–	14.3	12.9	26.4	5.02	21.7	25.2	15.4	13.6	12
CC(=O)c1ccc(NC(=O)C(=O)Nn2c(=S)[nH]c3ccccc3c2=O)cc1	–	> 100	> 100	> 100	> 100	> 100	> 100	> 100	–	–	–	–	–	> 100	–	–	–	–	–	–
O=[N+]([O-])c1cccc(C2ON2C2CCCCC2)c1 (stereo unspecified)	36.7	> 100	81.3	89.7	21	45.1	7.98	49.6	–	–	–	–	–	–	–	–	–	–	–	–
O=C(CCC(=O)C(C(=O)c1ccccc1)c1ccccc1)Nc1cccc(C(F)(F)F)c1 (stereo unspecified)	> 100	> 100	–	> 100	> 100	> 100	> 100	> 100	–	–	–	–	–	> 100	–	–	–	–	–	–
O=[N+]([O-])c1cccc(-c2oc(C=Nc3ccccc3)c([N+](=O)[O-])c2-c2cccc([N+](=O)[O-])c2)c1	> 100	> 100	> 100	> 100	> 100	> 100	> 100	> 100	–	–	–	–	–	> 100	–	–	–	–	–	–

SMILES	TGI [1] [µM]	TGI [2] [µM]	TGI [3] [µM]	TGI [4] [µM]	TGI [5] [µM]	TGI [6] [µM]	TGI [7] [µM]	TGI [8] [µM]	GI50 [1] [µM]	GI50 [3] [µM]	GI50 [4] [µM]	GI50 [5] [µM]	GI50 [9] [µM]	TGI [9] [µM]	GI50 [7] [µM]	GI50 [8] [µM]	TGI [10] [µM]	GI50 [2] [µM]	GI50 [6] [µM]	GI50 [10] [µM]
CCc1cccc(C(C)C)c1N1C(=O)C(=O)C(c2nc3ccccc3s2)C(=O)C1=O	> 42.1	> 50	> 50	> 50	> 50	> 50	> 50	> 50	–	–	–	–	–	> 50	–	–	–	–	–	–
Cc1cc(N(CCNc2ccnc3cc(Cl)ccc23)Cc2ccco2)nc(Cl)n1	–	3.58	3.38	2.94	3.95	3.93	–	3.68	–	1.68	1.47	1.89	1.59	3.07	–	1.9	3.18	1.61	1.77	1.71
CN(C)c1ccc(Nc2cc(-c3cccc(OC(F)(F)F)c3)nc3ccc(N4CCCC4)cc23)cc1	–	6.05	3.22	3.71	–	4.39	4.48	3.35	–	1.67	1.71	–	1.73	3.25	1.87	1.75	–	2.16	2.06	–
COc1cc(OC)c(C2CC=Cc3c(OC)cc(OC)c(OC)c32)cc1OC (stereo unspecified)	> 100	> 100	> 100	> 100	> 100	> 100	> 100	> 100	–	–	–	–	–	> 100	–	–	–	–	–	–
COc1ccc(OC)c(/C=C(/C)[N+](=O)[O-])c1	> 100	11.5	4.86	–	5.94	4.52	3.64	3.22	2.66	2.31	–	2.28	1.34	3.06	0.603	1.69	5.63	2.76	1.83	2.4
CCCCCCCCCCCCCP(=O)(O)OCC	> 100	> 100	> 100	> 100	> 100	> 100	–	> 100	–	–	–	–	–	> 100	–	–	–	–	–	–
O=C1c2ccccc2C(=O)c2c1ccc(C1C(=O)c3ccccc3C1=O)c2-c1c(C2C(=O)c3ccccc3C2=O)ccc2c1C(=O)c1ccccc1C2=O	–	> 100	> 100	> 100	> 100	–	> 100	> 100	–	–	–	–	–	> 100	–	–	> 100	–	–	–
NCCCNCCCCN(CCCN)/[N+]([O-])=N\O	> 100	> 100	> 100	> 100	> 100	> 100	> 100	> 100	–	–	–	–	–	–	–	–	–	–	–	–
Cc1c(COc2cc(OCc3cccc(C#N)c3)c(CN3C[C@H](O)C[C@@H]3C(=O)O)cc2Cl)cccc1-c1ccc2c(c1)OCCO2	–	41.2	38.6	–	30.3	31	–	41.8	–	19.8	–	16.1	4.28	16	–	20.6	7.7	18.1	16.9	2.54
Cc1cc(C)nc(NS(=O)(=O)c2ccc(Nc3c4ccc(Cl)cc4nc4c(C(=O)Nc5ccc(S(N)(=O)=O)cc5)cccc34)cc2)n1	> 100	48.8	37.8	–	27.2	43	76.5	43.9	–	–	–	–	–	34.8	–	–	–	–	–	–
O=C1C2C3C=CC(C2C(=O)N1COP(=O)(O)O)C1C2C(=O)N(COP(=O)(O)O)C(=O)C2C31 (stereo unspecified)	> 60.7	> 100	> 100	> 100	> 100	> 100	> 68.5	> 100	–	–	–	–	–	> 64.1	–	–	–	–	–	–
Clc1ccc(C2SCc3nc4ccccc4n32)cc1Cl (stereo unspecified)	> 100	28.1	27.8	27.4	27	27.5	96.1	–	–	–	–	–	–	25.7	–	–	–	–	–	–
C=C(Br)N(CC)CC	> 100	> 100	> 100	> 100	> 100	> 100	> 100	> 100	–	–	–	–	–	> 100	–	–	–	–	–	–
C=C1CCC2C(C)(C)CCC[C@]2(C)[C@H]1CO (stereo partly specified)	–	> 100	> 100	> 100	> 100	> 100	–	> 100	–	> 100	74.9	87.7	24.9	70.2	–	> 100	> 100	53.5	46.1	65.8
COc1cc(/C=C/C(=O)c2ccc(NC(=O)CN3CCN(c4cc5c(cc4F)c(=O)c(C(=O)O)cn5C4CC4)CC3)cc2)cc(OC)c1OC	–	–	3.93	7.58	2.31	4.89	–	65.4	–	0.353	1.79	0.451	0.511	2.24	0.31	1.42	> 100	–	0.971	0.782
S=c1cc(S)sc2c1c(=S)sc1nc3ccccn3c(=S)c12	> 100	> 100	–	> 100	> 100	> 100	> 100	–	–	–	–	–	–	> 100	–	–	–	–	–	–
O=C(Cn1ccnc1[N+](=O)[O-])c1ccc(F)cc1	> 100	> 100	> 100	> 100	> 100	> 100	> 100	> 100	–	–	–	–	–	> 100	–	–	–	–	–	–
Fc1ccccc1C1CC(c2ccc3ccccc3c2)=Nc2ccccc2S1 (stereo unspecified)	> 100	> 100	> 100	–	> 100	> 100	–	> 100	–	–	–	–	–	> 100	–	–	–	–	–	–
CCC(=O)c1c(NOC2OC(COC(C)=O)C(OC(C)=O)C(OC(C)=O)C2OC(C)=O)nc(OC)n(C)c1=O (stereo unspecified)	> 100	> 100	> 100	–	> 100	> 100	–	–	–	–	–	–	–	> 100	–	–	–	–	–	–
Cc1ccc(S(=O)(=O)OCC23CCC(CC2)C2CC23)cc1 (stereo unspecified)	> 100	–	> 100	87.5	–	> 100	87.8	> 100	–	–	–	–	–	> 100	–	–	–	–	–	–
O=C(CC1(O)C(=O)Nc2c(Cl)cc(Cl)cc21)c1cccc2ccccc12 (stereo unspecified)	41.3	29.7	30.6	–	31.5	32.8	47.4	29.8	–	–	–	–	–	32.5	–	–	–	–	–	–
